# Data: PubChem BioAssay AID1549 (Sanford-Burnham Center for Chemical Genomics, 2009)
# Activity calls are given as the source filed them. The rule behind the calls is not given here.
# Target: Influenza A virus M2 proton channel (A/TW/4845/1999 H1N1)
# Assay: NMR binding screen, influenza A virus M2 proton channel, Kd (AID 1549)
# Details: M2 protein
row,SMILES,Kd
1,CCOC(=O)Nc1ccc2c(C)cc(=O)oc2c1,> 4 mM (inactive)
2,OC/C=C/c1ccc(O)c(O)c1,> 4 mM (inactive)
3,CC(CCC(=O)O)[C@H]1CCC2C3CC[C@@H]4C[C@H](O)CC[C@]4(C)C3CC[C@@]21C (some centres undefined),> 4 mM (inactive)
4,CNS(=O)(=O)c1cccs1,> 4 mM (inactive)
5,CC(=O)Nc1ccc(S(=O)(=O)NC(N)=O)cc1,> 4 mM (inactive)
6,NC(=O)C12CC3CC(C1)C(=O)C(C3)C2,> 4 mM (inactive)
7,CCOC(=O)c1cnc2cc(C)nn2c1C,> 4 mM (inactive)
8,N=Cc1c(O)n(-c2cccc(Cl)c2)c(=O)[nH]c1=O,> 4 mM (inactive)
9,O=C(Nc1ccc2c(c1)OCCO2)c1ccncc1,> 4 mM (inactive)
10,CN1CN/C(=N\[N+](=O)[O-])N(c2ccccc2)C1,> 4 mM (inactive)
11,COc1ccc([C@@H](C)C(=O)c2ccc(O)cc2O)cc1,> 4 mM (inactive)
12,O=C(NCc1cccs1)c1ccc2c(c1)OCCO2,> 4 mM (inactive)
13,O=C(Nc1ccon1)c1cc2c(s1)CCCC2,> 4 mM (inactive)
14,Cc1sc(N)c(C(N)=O)c1C,> 4 mM (inactive)
15,CC(=O)Nc1ccc2c(C)cc(=O)[nH]c2c1,> 4 mM (inactive)
16,Cn1nnc2cc(C(=O)NC3CCCCC3)ccc21,> 4 mM (inactive)
17,Cc1cc(=O)[nH]c(NCc2cccnc2)n1,> 4 mM (inactive)
18,Nc1c(C(=O)O)sc2ncccc12,> 4 mM (inactive)
19,OCc1cc(-c2cccs2)on1,> 4 mM (inactive)
20,N/C(=N/O)C1COc2ccccc2O1 (centres undefined),> 4 mM (inactive)
21,O=C1Nc2ccccc2C1(O)Cc1ccncc1 (centres undefined),> 4 mM (inactive)
22,CC(=O)OCC(=O)[C@@]1(O)CCC2C3CC[C@@H]4C[C@H](O)CC[C@]4(C)C3C(=O)C[C@@]21C (some centres undefined),> 4 mM (inactive)
23,Cc1oc(-c2ccccc2)nc1CCO,> 4 mM (inactive)
24,O=C1CNC(=O)N1c1cccc(Cl)c1,> 4 mM (inactive)
25,O=C(O)C1CCCN1Cc1c[nH]c2ccccc12 (centres undefined),> 4 mM (inactive)

row,SMILES,Kd
1,Cc1ccc(CN2CCNC(=O)C2CC(=O)O)o1 (centres undefined),> 4 mM (inactive)
2,COc1ccc(C2CC(=O)NN2)cc1OC1CCCC1 (centres undefined),> 4 mM (inactive)
3,O=C(O)c1ccccc1C(=O)Nc1ccccc1,> 4 mM (inactive)
4,CC12CN([N+](=O)[O-])C3(C(N)=O)CC1CCC23C (centres undefined),> 4 mM (inactive)
5,O=c1[nH]c(NCCO)nnc1Cc1ccccc1,> 4 mM (inactive)
6,NC(CSCSCC(N)C(=O)O)C(=O)O (centres undefined),> 4 mM (inactive)
7,O=C1CCC(=O)N1c1ccc(O)cc1,> 4 mM (inactive)
8,Nc1ccn(C2O[C@H](CO)[C@@H](O)[C@H]2O)c(=O)n1 (some centres undefined),> 4 mM (inactive)
9,COc1cccc(C(=O)N2CCOCC2)c1,> 4 mM (inactive)
10,COc1ccc(C2(CN)CCOCC2)cc1OC,> 4 mM (inactive)
11,CC(=O)Nc1sccc1C(N)=O,> 4 mM (inactive)
12,Cc1ccc(S(=O)(=O)CCc2ccccn2)cc1,> 4 mM (inactive)
13,CN(C)C1CCS(=O)(=O)C1 (centres undefined),> 4 mM (inactive)
14,Cc1occc1C(=O)NC1CCN(C)CC1,> 4 mM (inactive)
15,O=C(O)C1CC2CC1CCC2O (centres undefined),> 4 mM (inactive)
16,O=c1[nH]c(=S)c2c(n1-c1ccccc1)CCC2,> 4 mM (inactive)
17,CN1CCC(NC(=O)c2ccccc2[N+](=O)[O-])CC1,> 4 mM (inactive)
18,c1ccc(-c2noc(-c3ccco3)n2)nc1,> 4 mM (inactive)
19,CC(=O)c1cccc(NS(=O)(=O)N(C)C)c1,> 4 mM (inactive)
20,CS(C)=C1C(=O)NC(=O)N(Cc2ccc(F)cc2)C1=O,> 4 mM (inactive)
21,CC1(C)CC(NC(=O)/C=C/C(=O)O)CC(C)(C)N1,> 4 mM (inactive)
22,Cc1c(C)[n+](=O)c(-c2cccs2)c(C)n1[O-],> 4 mM (inactive)
23,Cc1ncc(CC(=O)O)s1,> 4 mM (inactive)
24,CCOC(=O)c1cc(C)[nH]n1,> 4 mM (inactive)
25,O=C1Cc2ccccc2N1c1ccccc1,> 4 mM (inactive)

row,SMILES,Kd
1,COC(=O)N1CCN(c2ccc(C(C)=O)cc2)CC1,> 4 mM (inactive)
2,Cc1cc(N2C(=O)CCC2=O)n(-c2ccccc2)n1,> 4 mM (inactive)
3,O=C(O)C(Cc1cnc[nH]1)N1C(=O)c2ccccc2C1=O (centres undefined),> 4 mM (inactive)
4,O=C(O)c1ccc2nsnc2c1,> 4 mM (inactive)
5,Cc1nc(SCC#N)c2c3c(sc2n1)CCC3,> 4 mM (inactive)
6,COc1cccc(OC)c1C(=O)N1CCOCC1,> 4 mM (inactive)
7,CCOC(=O)Cn1cnc2c1c(=O)[nH]c(=O)n2C,> 4 mM (inactive)
8,COc1ccc(-c2cc(=O)c3cc(OC)ccc3o2)cc1,> 4 mM (inactive)
9,O=C(NC1CCS(=O)(=O)C1)c1ccccc1 (centres undefined),> 4 mM (inactive)
10,O=C(O)CCCC(=O)Nc1nccs1,> 4 mM (inactive)
11,COc1ccc(N2CC(=O)NC2=O)cc1,> 4 mM (inactive)
12,CCOC(=O)CC1Sc2ccccc2NC1=O (centres undefined),> 4 mM (inactive)
13,O=C1NCC(=O)N2CCc3ccccc3C12 (centres undefined),> 4 mM (inactive)
14,Cc1cc([N+](=O)[O-])cc[n+]1[O-],> 4 mM (inactive)
15,Nc1cccc(C(=O)Nc2ccc(N)cc2Cl)c1,> 4 mM (inactive)
16,O=S(=O)(Nc1ccc2c(c1)OCCO2)c1cccs1,> 4 mM (inactive)
17,O=C(Nc1ccc(Cl)cn1)c1cnn2cccnc12,> 4 mM (inactive)
18,Cc1ccc(-n2nnnc2SCC(N)=O)c(C)c1,> 4 mM (inactive)
19,NCc1nc2ccccc2s1,> 4 mM (inactive)
20,CC(=O)Nc1ccn(-c2ccccc2)n1,> 4 mM (inactive)
21,Cc1onc(-c2ccc(F)cc2)c1C(=O)O,> 4 mM (inactive)
22,CC(=O)Oc1ccc(-c2nc(-c3cccnc3)no2)cc1,> 4 mM (inactive)
23,O=C(c1cccs1)N1CCCc2ccccc21,> 4 mM (inactive)
24,COc1ccc2c(c1)=C(c1sc(N)nc1O)C(=O)N=2,> 4 mM (inactive)
25,Cc1[nH]c2ccccc2c1C=Nn1cncn1,> 4 mM (inactive)

row,SMILES,Kd
1,Cc1cc(SCC(=O)Nc2nccs2)nc(=O)[nH]1,> 4 mM (inactive)
2,OCc1ccc(-c2cccs2)s1,> 4 mM (inactive)
3,Nc1cccc(-n2cccc2)c1,> 4 mM (inactive)
4,Cc1sc2nc(C)n(NC(N)=O)c(=O)c2c1C,> 4 mM (inactive)
5,NCc1cn2ccccc2n1,> 4 mM (inactive)
6,CN(C)c1ccc(/C=C2/NC(=S)NC2=O)cc1,> 4 mM (inactive)
7,OCC12COC3c4ccccc4C(OC1)N32 (centres undefined),> 4 mM (inactive)
8,O=c1[nH]c(CN2CCN(CCO)CC2)nc2ccccc12,> 4 mM (inactive)
9,OCC1CCCCCN1 (centres undefined),> 4 mM (inactive)
10,NS(=O)(=O)c1ccccc1Cl,> 4 mM (inactive)
11,CC(C)=CCCC1(C)C=Cc2c(O)c3c(c(CC=C(C)C)c2O1)OC12C(=CC4CC1C(C)(C)OC2(C/C=C(/C)C(=O)O)C4O)C3=O (centres undefined),> 4 mM (inactive)
12,O=c1c2ccccc2oc2ccccc12,> 4 mM (inactive)
13,c1ccc(CCNc2ncnc3nc[nH]c23)cc1,> 4 mM (inactive)
14,NC(=O)NC1C=CS(=O)(=O)C1 (centres undefined),> 4 mM (inactive)
15,Cc1ccccc1-n1c(-c2ccncc2)n[nH]c1=S,> 4 mM (inactive)
16,COC1=CC(=O)C[C@@H](C)[C@]12Oc1c(Cl)c(OC)cc(OC)c1C2=O,> 4 mM (inactive)
17,Cc1c(-c2ccc(F)cc2)[n+](=O)c2c(n1[O-])CCC2,> 4 mM (inactive)
18,Cc1c(CO)cnn1-c1ccccc1,> 4 mM (inactive)
19,Cc1cc(C)cc(C(=O)n2cnnc2N)c1,> 4 mM (inactive)
20,O=C(NCc1ccccn1)c1ccccc1Cl,> 4 mM (inactive)
21,Cc1csc(SCC(=O)N2CCCC2)n1,> 4 mM (inactive)
22,Cc1[nH]c(=O)[nH]c(=O)c1N1CCOCC1,> 4 mM (inactive)
23,COc1c2occc2cc2ccc(=O)oc12,> 4 mM (inactive)
24,O=C(O)c1cc(O)c2c(c1)[C@@H]([C@H]1c3cc(C(=O)O)cc(O)c3C(=O)c3c(O[C@H]4O[C@H](CO)[C@@H](O)[C@H](O)[C@H]4O)cccc31)c1cccc(O[C@H]3O[C@H](CO)[C@@H](O)[C@H](O)[C@H]3O)c1C2=O,> 4 mM (inactive)
25,NC(=O)CNC(=O)c1ccccc1,> 4 mM (inactive)

row,SMILES,Kd
1,COc1cccc(/C=C2/SC(N)=NC2=O)c1,> 4 mM (inactive)
2,Cn1c(CO)nc2ccccc21,> 4 mM (inactive)
3,CCOC(=O)C1=C(O)CCN(C)C1,> 4 mM (inactive)
4,CC(C)n1c(Nn2cnnc2)nc2ccccc21,> 4 mM (inactive)
5,CC(=O)c1cc(C)ccc1OC(=O)c1cccnc1,> 4 mM (inactive)
6,COc1cccc(-c2csc(NC(C)=O)n2)c1,> 4 mM (inactive)
7,COc1cccc(-c2nc(-c3ccccn3)no2)c1OC,> 4 mM (inactive)
8,C/C=C/c1ccc2c(c1)OCO2,> 4 mM (inactive)
9,O=C(Cc1cccs1)Nc1ccccn1,> 4 mM (inactive)
10,CC1=C(C(=O)Nc2ccccc2)SCCO1,> 4 mM (inactive)
11,OC1CSc2ncnn2C1 (centres undefined),> 4 mM (inactive)
12,O=C(NCO)c1ccccc1Cl,> 4 mM (inactive)
13,Cc1csc(NC(=O)c2ccoc2C)n1,> 4 mM (inactive)
14,O=C(O)CCn1cncn1,> 4 mM (inactive)
15,COc1ccc(C2=CC(=O)C=CC2=O)cc1,> 4 mM (inactive)
16,CC(=O)O[C@@H]1CC2C(C)(C)C(=O)C=C[C@]2(C)C2CC[C@]3(C)C(=CC(=O)O[C@H]3c3ccoc3)[C@@]21C (some centres undefined),> 4 mM (inactive)
17,CSc1nc(NC(C)C)nc(N2CCOCC2)n1,> 4 mM (inactive)
18,OC[C@@H]1CCCN2CCCC[C@H]12,> 4 mM (inactive)
19,Cc1ccc(C2NS(=O)(=O)N=C2N)cc1 (centres undefined),> 4 mM (inactive)
20,O=c1oc2ccccc2cc1O,> 4 mM (inactive)
21,CC1(C)Oc2ccc3ccc(=O)oc3c2CC1O (centres undefined),> 4 mM (inactive)
22,c1ccc(SCc2nc(-c3cccnc3)no2)cc1,> 4 mM (inactive)
23,C[n+]1ccn(C/C(N)=N/O)c1,> 4 mM (inactive)
24,CC1(C)Cc2nc(N3CCOCC3)c(C#N)cc2CO1,> 4 mM (inactive)
